Assay results: paper PMC6093650, “Antidepressive and anxiolytic effects of ostruthin, a TREK-1 channel activator” (PLoS ONE, 2018)
pEC50: −log10 of the molar value.

What was measured:
TREK-1 channel = target: T1, TREK-1 channel (Homo sapiens, UniProt O95069); assay: whole-cell patch-clamp of TREK-1 currents in TR-1 cells (293T stably expressing TREK-1); format: cell-based; conditions: TR-1 (293T) cells, 25°C, applied 5 min after whole-cell access, n = 5; read-out: EC50 of activation of whole-cell TREK-1 currents
T1 construct: expressed in transfected cells
T1 sequence (O95069 1-426): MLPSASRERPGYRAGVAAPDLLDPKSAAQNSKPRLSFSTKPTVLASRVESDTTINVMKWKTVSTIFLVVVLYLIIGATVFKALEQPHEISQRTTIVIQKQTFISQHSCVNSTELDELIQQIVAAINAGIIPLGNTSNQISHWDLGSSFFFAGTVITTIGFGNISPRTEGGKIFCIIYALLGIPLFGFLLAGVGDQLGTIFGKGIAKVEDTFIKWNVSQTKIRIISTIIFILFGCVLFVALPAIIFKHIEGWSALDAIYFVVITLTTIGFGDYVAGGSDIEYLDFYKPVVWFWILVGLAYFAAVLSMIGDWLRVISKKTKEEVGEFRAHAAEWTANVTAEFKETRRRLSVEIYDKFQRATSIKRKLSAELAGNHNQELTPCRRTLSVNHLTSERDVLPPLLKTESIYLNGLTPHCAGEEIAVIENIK
Description: For recordings of K^+ channel currents, we prepared stable cell lines for TREK-1, TWIK-related acid-sensitive K^+ channel (TASK-1), strongly inwardly rectifying K^+ channel (Kir2.1), and human ether-a-go-go-related gene (HERG-1) channels and transiently expressed other channels in 293T cells using a calcium-phosphate transfection method. For the establishment of the stable lines, we used lentiviral vectors, and the preparation methods for the lentiviral vectors were described in our previous report. TR-1 cells, which stably expressed TREK-1 channel and were grown on a small cover glass (3 × 18 mm), were placed in a recording chamber with an internal volume of 200 μl. Whole-cell currents were recorded in Tyrode solution using an Axopatch 200B amplifier (Axon Instruments, Foster City, CA) at 25°C. […] Perfusion (100 μl/min) was continued to maintain the water level throughout recordings. pH and osmotic pressure of solutions were measured with a pH meter (Horiba, Kyoto, Japan) and a freezing point osmometer (Knauer, Berlin, Germany), respectively.
We previously prepared a lentiviral vector that expressed the TREK-1 channel and using this vector we established a cell line, TR-1, which stably expressed the channel. […] Immediately after whole-cell access, small outward currents were recorded in response to depolarizing step pulses (Fig 1A, 0 min). […]

[1] = system: mice anxiety-like behavior; assay: elevated plus maze; format: in vivo
Description: (§1) Male ICR mice (n = 317 in total) aged 5 weeks and weighing 32 ± 2 g were purchased from Shimizu Laboratory Supplies (Kyoto, Japan). For the social defeat stress test, we used 28 C57BL/6J mice (5 weeks old, Shimizu Laboratory Supplies) and 30 ICR mice (7–8 weeks old, Charles River Labs Japan, Yokohama, Kanagawa, Japan). Mice were maintained for at least 1 week prior to experiments. Animals were kept in groups in plastic cages. They had free access to food and water, and were kept in a 12-h light/dark cycle (08:00–20:00). Experiments were carried out between 10:00 and 18:00 in a quiet and air-conditioned experimental room, in which mice were habituated for at least 30 min before each experiment. Animal experiments were performed in accordance with the guidelines of the Physiological Society of Japan and were approved by the Committees on Animal Experiments at Kansai Medical University and the Kurashiki University of Science and the Arts. Ostruthin was initially dissolved in DMSO at higher concentration (100 mM) and then diluted in phosphate-buffered saline (PBS). The diluted solution was mixed vigorously for more than 10 min before the experiments, and an equal volume of DMSO was added to PBS as a control. PBS and ostruthin were administered intraperitoneally 30 min before mice behavioral tests (0.01 ml/g body weight). Each animal was used only once, except for the wheel running test, which was carried out immediately after elevated plus maze.
The elevated plus maze apparatus consisted of four arms set in a cross pattern from a neutral central square (6 × 6 cm). Two opposite arms were delimited by vertical walls (closed arms, 30 × 15 × 6 cm), whereas the other two arms had unprotected edges (open arms, 30 × 6 cm). The maze was elevated 40 cm above the floor. At the beginning of each 5 min test session, a mouse was placed in the central neutral area, facing one of the open arms. The total number of the entries to open arms and time spent in the open arms were measured. After removal of the animal, the apparatus was cleaned and wiped.

[2] = system: mice anxiety-like behavior; assay: light/dark box test; format: in vivo; conditions: n = 8
Description: as §1
The light/dark box consisted of two compartments with a total exterior size of 46 × 27 × 30 cm. One-third of the box was used as a dark compartment, which was covered with a black wall and lid, and the rest of the area was used as a light compartment. These compartments were connected via a small opening (7 × 7 cm), enabling transition between the two compartments. We placed a mouse in the center of the light area and measured the time spent in the light area and the number of transitions between the light and dark compartments for 5 minutes.

[3] = system: general locomotor activity of mice; assay: voluntary wheel running test; format: in vivo; conditions: 0, 2, 5, 20 mg/kg i.p., after elevated plus maze, 5 min, n = 7
Description: as §1, with “The diluted solution was mixed vigorously for more than 10 min before the experiments, and an equal volume of DMSO was added to PBS as a control. PBS and ostruthin were administered intraperitoneally 30 min before mice behavioral tests (0.01 ml/g body weight). Each animal was used only once, except for the wheel running test, which was carried out immediately after elevated plus maze.” left out
Immediately after the elevated plus maze test, the same mouse was subjected to the voluntary wheel running test. The number of rotations was measured for 5 min using an activity monitoring running wheel (Muromachi Kikai, Tokyo, Japan).

[4] = i.p. 30 min before test, vs 0 mg/kg

## CC(C)=CCC/C(C)=C/Cc1cc2ccc(=O)oc2cc1O [ostruthin]
TREK-1 channel
  pEC50: 5.28
[1]; 20 mg/kg i.p., vs 5 mg/kg
  number of entries to the open arm: decreased
  time spent on the open arm: decreased
[1]; 2 and 5 mg/kg i.p. 30 min before test, vs 0 mg/kg
  number of entries to the open arm: increased
[1]; amlodipine experiment: single compound vs PBS, ostruthin 5 mg/kg or amlodipine 10 mg/kg, n = 6
  number of entries to the open arm: increased
[1]; ostruthin 5 mg/kg co-administered with amlodipine 10 mg/kg, vs amlodipine, n = 6
  number of entries to the open arm: did not increase
[1]; ostruthin 5 mg/kg in the absence of amlodipine, vs PBS, n = 6
  time spent in the open arm: increased
[1]; ostruthin 5 mg/kg in the presence of amlodipine 10 mg/kg, n = 6
  increase of time spent in the open arm: did not
[2]; 20 mg/kg i.p., vs 5 mg/kg
  time spent in the light box: decreased
[2]; highest dose (20 mg/kg) i.p.
  number of transitions between the light and dark boxes: non-significantly decreased
[2]; [4]
  number of transitions between the light and dark boxes: increased
  time spent in the light box: significantly increased
[3]
  number of wheel rotations (voluntary motility): no effect at any dose
